Measured values: patent publication US20120059020A1, “PROPHYLACTIC OR THERAPEUTIC AGENT FOR PULMONARY FIBROSIS” (SHIZUOKA COFFEIN CO., LTD, priority 2009, published 2012)

What was measured:
Solubility test in water = assay type: physicochemical
Procedure: Solubility test on a 2Na salt of a typical compound (1) (disodium salt of [5-[[6-[4-phenyl-6-(phenylmethoxy)-2-pyrimidinyl]-2-naphthalenyl]oxy]pentyl]propanedioic acid) used in the present invention in water is shown below.
Water of 20±2° C. was added to the 2Na salt of the compound (1), and the mixture was vigorously shaken for 30 seconds and left standing for 5 minutes. This operation was repeated until the 2Na salt of the compound (1) was completely dissolved. The final amount of water required for the dissolution was determined. The solubility of the 2Na salt of the compound (1) in water of 45±5° C. was determined by similar operation.

[1] = test system: mouse models with bleomycin-induced pulmonary fibrosis; assay: In vivo effect on pulmonary fibrosis induced by bleomycin; design: species or system C57BL/6 mice
Text: The present inventors conducted a test using mouse models with pulmonary fibrosis induced by transtracheally administering bleomycin, for the purpose of studying the antifibrotic action of the propanedioic acid derivative of the present invention in vivo. This experimental model of pulmonary fibrosis is clinically similar to idiopathic pulmonary fibrosis in pathological observations such as increased inflammatory cells and the increased amount of hydroxyproline in an extracellular matrix-constituting collagen ingredient used as an index for fibrosis, and is widely used.
C57BL/6 mice (female, 12 week old, body weight: 20 to 23 g) were anesthetized by the intraperitoneal administration of pentobarbital. The trachea was incised, and bleomycin (NIPPON KAYAKU CO., LTD.) (1.5 mg/kg) dissolved in saline was transtracheally administered thereto. […]
20 days after bleomycin administration, a bronchoalveolar lavage fluid (BALF) was collected from each mouse, and a PAI-1 concentration (ng/mL) in the fluid was measured using an ELISA kit (Mouse PAI-1 ELISA kit, Innovative research Inc.). Subsequently, the amount of hydroxyproline was measured for pulmonary fibrosis evaluation. The amount of hydroxyproline in the lung tissue was measured as the amount in a lung tissue hydrolysate according to the method of Kivirikko et al. (Anal. Biochem. 19, 249-255 (1967)). […]

[2] = Stability test in aqueous solution (HPLC assay); assay type: physicochemical; details: for Purity: aqueous solution 1 g/100 mL, 35° C.
Procedure: Stability test on the 2Na salt of the compound (1) used in the present invention in an aqueous solution is shown below.
Injectable distilled water was added to 1 g of the 2Na salt of the compound (1) to prepare 100 mL of a sample solution. The sample solution was equally divided. One portion was shielded against light, and the other portion was unshielded. Each of them was stored at 35° C. for 11 days during which these sample solutions were assayed over time using high-performance liquid chromatography and examined for stability.
YMC-Pack ODS-A A-302 (YMC Co., Ltd.) was used as a column, and the column temperature was kept at a constant temperature around 40° C. A tetrahydrofuran/0.1% phosphoric acid (54:46) mixed solution was used as a mobile phase. A flow rate was adjusted such that the retention time of the compound (1) was approximately 7 minutes. An ultraviolet absorptiometer (measurement wavelength: 265 nm) was used as a detector.

O=C([O-])C(CCCCCOc1ccc2cc(-c3nc(OCc4ccccc4)cc(-c4ccccc4)n3)ccc2c1)C(=O)[O-].[Na+].[Na+] [2Na salt of compound (1), disodium salt of [5-[[6-[4-phenyl-6-(phenylmethoxy)-2-pyrimidinyl]-2-naphthalenyl]oxy]pentyl]propanedioic acid]
Amount of solvent required for dissolving 1 g (Solubility test in water; Water (20 ± 2° C.)): 33 mL
Amount of solvent required for dissolving 1 g (Solubility test in water; Water (45 ± 5° C.)): 1.2 mL
Solubility in water (Solubility test in water; water): excellent in solubility in water
Fibrotic process of the lung induced by bleomycin ([1]; 1000 ppm in drinking water, free feeding, mice, listed as 2Na salt of the compound (1)): remarkable effectiveness that suppressed the fibrotic process of the lung
Amount of hydroxyproline in lung tissue compared with the control group ([1]; group 2 (late stage): 1000 ppm in drinking water from 8 to 20 days after bleomycin (fibrotic stage), approx. 20 mg/kg/day, measured 20 days after bleomycin): significantly decreased
Stability of aqueous solution ([2]; 35° C. for 11 days, light-shielded or unshielded): stable
Purity ([2]; light-shielded, 0 days elapsed): 99.8%
Purity ([2]; light-shielded, 1 day elapsed): 99.8%
Purity ([2]; light-shielded, 6 days elapsed): 99.8%
Purity ([2]; light-shielded, 11 days elapsed): 99.8%
Purity ([2]; unshielded, 0 days elapsed): 99.8%
Purity ([2]; unshielded, 1 day elapsed): 99.8%
Purity ([2]; unshielded, 6 days elapsed): 99.7%
Purity ([2]; unshielded, 11 days elapsed): 99.7%
